Data reported in patent US10647671B2, “Promysalin analogues and methods of use thereof” (Temple University—Of The Commonwealth System of Higher …, priority 2016, dated 2020).
Like-named read-outs stand apart in the source and are kept apart here.

Tests used:
P. aeruginosa PA01 = assay: IC50 assay (OD595, 24 h) against PA01; assay type: cell-based; conditions: Pseudomonas aeruginosa
Protocol: (§1) P. aeruginosa PA01, and PA14 were gifts from Prof. George O'Toole (Dartmouth Medical School). Bacterial cultures were grown from freezer stocks overnight (16-24 hr) with shaking at 37° C. in Tryptic Soy Broth (TSB) media (10 mL). Growth curves were obtained for PA01 and PA14 to determine the OD of each strain in exponential growth; OD readings at 595 nm were taken every 10 minutes for 6 hours in a plate reader at 37° C. with shaking and repeated six times. (see FIGS. 6A and 6B) Compounds were serially diluted in sterile DI water from a stock solution (1 mM in 10% DMSO/90% H2O) to yield twenty-four test concentrations. Overnight cultures were diluted 1:100 in 5 mL fresh media and grown with shaking at 37° C. to an OD of 0.32 (see growth curves). Bacteria were diluted to a concentration of 0.004 using the following equation: (x μL O/N)(OD reading)=(0.004)(volume needed) and 100 μL was inoculated into each well of a flat-bottom 96-well plate (Corning 3370) containing 100 μL of compound solution. Plates were incubated statically at 37° C. for 24 hours, upon which time the OD at 595 nm was measured using a plate reader. IC50 values were calculated by fitting the OD readings vs. concentration with a 4 parameter logistic model. Controls were prepared by serially diluting a 10% DMSO/90% H2O the same as the compound stock solution. Compounds were tested in triplicate from separate O/N cultures and results averaged.

P. aeruginosa PA14 = assay: IC50 assay (OD595, 24 h) against PA14; assay type: cell-based, Pseudomonas aeruginosa; conditions: Pseudomonas aeruginosa
Protocol: (§2) P. aeruginosa PA01, and PA14 were gifts from Prof. George O'Toole (Dartmouth Medical School). Bacterial cultures were grown from freezer stocks overnight (16-24 hr) with shaking at 37° C. in Tryptic Soy Broth (TSB) media (10 mL). Growth curves were obtained for PA01 and PA14 to determine the OD of each strain in exponential growth; OD readings at 595 nm were taken every 10 minutes for 6 hours in a plate reader at 37° C. with shaking and repeated six times. (see FIGS. 6A and 6B)
as §1, with “Compounds” for “P. aeruginosa PA01, and PA14 were gifts from Prof. George O'Toole (Dartmouth Medical School). Bacterial cultures were grown from freezer stocks overnight (16-24 hr) with shaking at 37° C. in Tryptic Soy Broth (TSB) media (10 mL). Growth curves were obtained for PA01 and PA14 to determine the OD of each strain in exponential growth; OD readings at 595 nm were taken every 10 minutes for 6 hours in a plate reader at 37° C. with shaking and repeated six times. (see FIGS. 6A and 6B) Compounds”
Compounds were serially diluted in sterile DI water from a stock solution (10% DMSO/H2O) yielding 24 test concentrations. Bacteria were diluted to a final concentration of 0.004 from regrown overnight culture according to the following equation: (xμL bacterial culture)(OD reading)=(0.004)(total volume needed) and 100 μL was inoculated into each well of a flat-bottom 96-well plate (Corning 3370) containing 100 μL of compound solution. Plates were incubated statically at 37° C. for 24 hours upon which time OD at 595 nm was measured using a plate reader (Spectra Max 190). IC50 values were calculated using OD values and concentrations with a 4-parameter logistic model. Control experiments used a 10% DMSO/H2O stock serially diluted to the same 24 concentrations. Compounds were tested in triplicate from three independent overnight cultures.

[1] = test system: P. aeruginosa strains PAO1 and PA14; assay: Inhibitory activity against P. aeruginosa, strain not separated in text; assay type: cell-based, Pseudomonas aeruginosa; conditions: compared with promysalin
Protocol: as §2
as §1, with “Compounds” for “P. aeruginosa PA01, and PA14 were gifts from Prof. George O'Toole (Dartmouth Medical School). Bacterial cultures were grown from freezer stocks overnight (16-24 hr) with shaking at 37° C. in Tryptic Soy Broth (TSB) media (10 mL). Growth curves were obtained for PA01 and PA14 to determine the OD of each strain in exponential growth; OD readings at 595 nm were taken every 10 minutes for 6 hours in a plate reader at 37° C. with shaking and repeated six times. (see FIGS. 6A and 6B) Compounds”
With a library of sixteen analogs in hand, all of the compounds were evaluated for inhibitory activity against P. aeruginosa strains PAO1 and PA14. […] The inhibition data supported our initial hypothesis that the conformation of promysalin is exquisitely linked to its inhibition of PA. Of our modifications to the proline structure, fluorination (9)—being the smallest steric perturbation, was the only compound with equipotency to that of promysalin.

CAS assay (CAS agar) = assay type: physicochemical; conditions: at concentrations ranging from 6-100 μM; reduced affinity compared to EDTA
Protocol: CAS agar was prepared as described previously (Cordero, et al., PNAS, 2012, 109, 49, 29059). 10 μL of solution at given concentration were dosed onto plates and imaged after 24 hours. Stock solutions were made in 10% DMSO/H2O.

PaPiuA = assay: Isothermal microcalorimetry titration; assay type: binding, Pseudomonas aeruginosa; conditions: 25° C.
Protocol: Titrations were performed using 5 μl injections of 164 μM (using ε280=6 714 1 mol-1 cm-1 Li et al. Chemistry and Biology 2011) of the ligand in 17 μM of purified PaPiuA (Moynie et al. Antimicrobial Agents and Chemotherapy 2017) in the same buffer (50 mM sodium phosphate pH 7.5, 50 mM NaCl, 0.8% OctylPOE). The heats of dilution measured from injection of the ligands into the buffer were subtracted from the experimental data and titration curves were fitted to a single site binding using Origin software.

[2] = test system: P. aeruginosa (PA14, PA01); assay: Zone of inhibition / growth in defined media; assay type: cell-based, Pseudomonas aeruginosa
Protocol: (§3) Bacterial strains (PA14, PAO1, KT2440, and RW10S1) were grown at 37° C. in TSB medium or on agar plates.
(§4) 100 μL overnight culture was added to TSB or M9 agar plates and bacterial lawns were ‘created’ using Roll & Grow Plating Beads. Compound stock solution 20 μL of a 250 μM solution, 10 μL of a 10 mg/mL gentamicin solution, and 20 μL of a 250 μM DMSO control (stock=10% DMSO/H2O) was absorbed into discs and allowed to dry. Discs were placed on the plates and incubated at 37° C. for 24 hours. Assay was run in triplicate from separate overnight cultures.

[3] = test system: P. putida (PP KT2440, PP RW10S); assay: Zone of inhibition / growth in defined media; assay type: cell-based, Pseudomonas putida
Protocol: as §3, §4

[4] = test system: P. aeruginosa strains PAO1 and PA14; conditions: cited from earlier work
[5] = Kaduskar et al., 2016; cited from earlier work
Gram-positive bacteria = conditions: Li et al., 2011; cited from earlier work
[6] = test system: pyoverdine production in P. putida KT2440; conditions: cited from earlier work
[7] = average of EXPT 1-3, read-out: IC50 PA01 AVG
[8] = averages of three independent experiments, read-out: IC50 PA01
[9] = single trial 1, read-out: IC50 PA01 EXPT 1
[10] = single trial 2, read-out: IC50 PA01 EXPT 2
[11] = single trial 3, read-out: IC50 PA01 EXPT 3
[12] = average of EXPT 1-3, read-out: IC50 PA14 AVG
[13] = averages of three independent experiments, read-out: IC50 PA14
[14] = single trial 1, read-out: IC50 PA14 EXPT 1
[15] = single trial 2, read-out: IC50 PA14 EXPT 2
[16] = single trial 3, read-out: IC50 PA14 EXPT 3

Row | SMILES | IC50 (P. aeruginosa PA01; [7]) | IC50 (P. aeruginosa PA01; [8]) | IC50 (P. aeruginosa PA01; [9]) | IC50 (P. aeruginosa PA01; [10]) | IC50 (P. aeruginosa PA01; [11]) | IC50 (P. aeruginosa PA14; [12]) | IC50 (P. aeruginosa PA14; [13]) | IC50 (P. aeruginosa PA14; [14]) | IC50 (P. aeruginosa PA14; [15]) | IC50 (P. aeruginosa PA14; [16]) | inhibitory activity against P. aeruginosa, in words (SAR) [1] | further results
1 | CCCCCC[C@H](CCCCC[C@@H](O)C(N)=O)OC(=O)[C@@H]1CC=CN1C(=O)c1ccccc1O [1 (2R,8R), promysalin] | 4.12 µM | 4.1 µM | 4.44 µM | 4.37 µM | 3.54 µM | 0.067 µM | 0.067 µM | 0.1 µM | 0.02 µM | 0.08 µM | – | IC50 (P. aeruginosa PA14; preliminary screening for probe design, read-out: IC50 in PA14): 0.063 µM; Fe^3+ chelation on CAS agar (CAS assay (CAS agar)): positive; binding to PiuA (isothermal microcalorimetry) (PaPiuA): no appreciable interaction; activity in TSB and glucose+Fe media [2]: active; zone of inhibition ([3]; M9, succinate as sole carbon source, iron-limiting, both PP strains including producing organism): clear zone of inhibition; activity in TSB and glucose+Fe media ([3]; P. putida): not P. putida; activity against PA (literature) [4]: nM concentrations; stability under mildly acidic conditions [5]: instability; susceptibility of Gram-positive bacteria (Gram-positive bacteria): no susceptibility; production of pyoverdine in P. putida KT2440 [6]: inhibits
2 | CCCCCC[C@H](CCCCC[C@@H](OC)C(N)=O)OC(=O)[C@@H]1CC=CN1C(=O)c1ccccc1O [compound 19, (7R,13R)-14-amino-13-methoxy-14-oxotetradecan-7-yl (S)-1-(2-hydroxybenzoyl)-2,3-dihydro-1H-pyrrole-2-carboxylate] | 38.3 µM | 38 µM | 29.2 µM | 49.3 µM | 47.6 µM | 11.2 µM | 11 µM | 12.8 µM | 5.72 µM | 15 µM | decrease in potency | –

Continued by falling IC50 (P. aeruginosa PA01; [7]), values first:

Row | IC50 (P. aeruginosa PA01; [7]) | IC50 (P. aeruginosa PA01; [8]) | IC50 (P. aeruginosa PA01; [9]) | IC50 (P. aeruginosa PA01; [10]) | IC50 (P. aeruginosa PA01; [11]) | IC50 (P. aeruginosa PA14; [12]) | IC50 (P. aeruginosa PA14; [13]) | IC50 (P. aeruginosa PA14; [14]) | IC50 (P. aeruginosa PA14; [15]) | IC50 (P. aeruginosa PA14; [16]) | SMILES | inhibitory activity against P. aeruginosa, in words (SAR) [1] | further results
3 | 8.34 µM | 8.3 µM | 10.1 µM | 8.07 µM | 6.81 µM | 0.067 µM | 0.067 µM | 0.12 µM | 0.05 µM | 0.03 µM | CCCCCC[C@H](C/C=C/CC[C@@H](O)C(N)=O)OC(=O)[C@@H]1CC=CN1C(=O)c1ccccc1O [compound 21, (7R,13R,E)-14-amino-13-hydroxy-14-oxotetradec-9-en-7-yl (S)-1-(2-hydroxybenzoyl)-2,3-dihydro-1H-pyrrole-2-carboxylate] | equipotent | –
4 | 7.7 µM | 7.7 µM | 8.11 µM | 8.57 µM | 6.41 µM | 0.019 µM | 0.019 µM | 0.04 µM | 0.01 µM | 0.01 µM | CCCCCC[C@H](CCCCC[C@@H](O)C(N)=O)OC(=O)[C@@H]1CC(F)=CN1C(=O)c1ccccc1O [compound 9, (7R,13R)-14-amino-13-hydroxy-14-oxotetradecan-7-yl (S)-4-fluoro-1-(2-hydroxybenzoyl)-2,3-dihydro-1H-pyrrole-2-carboxylate] | equipotency | –
5 | 5.85 µM | 5.8 µM | 4.78 µM | 5.64 µM | 7.12 µM | 0.035 µM | 0.035 µM | 0.02 µM | 0.09 µM | – | CCCCCC[C@H](CCCCCCC(N)=O)OC(=O)[C@@H]1CC=CN1C(=O)c1ccccc1O [compound 18, (R)-14-amino-14-oxotetradecan-7-yl (S)-1-(2-hydroxybenzoyl)-2,3-dihydro-1H-pyrrole-2-carboxylate] | fully retained | –
